The values that follow are results of earlier work, collected in article PMC10673369, “Preliminary SAR of Novel Pleuromutilin–Polyamine Conjugates” (Microorganisms, 2023).

Common to all, as to parameters: method as in PMID 22191527, PMID 27742734, PMID 23836172, PMID 30019769
The test system of data set [1] is non-fastidious Gram-negative bacteria. To be noted: cited from earlier work.
Data set [2] deals with aerobic Gram-positive bacteria. To be noted: incl. MRSA, VISA, hVISA, VRSA, PRSP, multidrug-resistant S. pneumoniae, VRE; cited from earlier work.
Data set [3] has as its system fastidious Gram-negative bacteria, including Haemophilus influenza and Moraxella catarrhalis. To be noted: incl. Haemophilus influenza and Moraxella catarrhalis; cited from earlier work.

For `C=C[C@]1(C)C[C@@H](OC(=O)CS[C@@H]2CC[C@@H](N)C[C@H]2O)[C@]2(C)[C@H](C)CC[C@]3(CCC(=O)[C@H]32)[C@@H](C)[C@@H]1O` [Compound 6, lefamulin], in data set [1], the “Antibacterial activity against non-fastidious Gram-negative bacteria” value was “no activity”. Besides, the “Antibacterial activity against aerobic Gram-positive bacteria” value in data set [2] is recorded as “potent antibacterial activity”. In addition, in data set [3], the “Antibacterial activity against fastidious Gram-negative bacteria” value is “favorable to moderate activity”.
